From ChEMBL document CHEMBL3045600, “Synthesis and Fungicidal Activities of Phenoxyphenyl Alkoxyiminoacetamide Derivatives” (J Pestic Sci, 1998)

Key:
Type in all cases: functional
Pyricularia oryzae [1] = experiment: Fungicidal activity against Magnaporthe oryzae assessed as rice blast disease control at 0.63 ppm submerged application measured after 7 days
Thanatephorus cucumeris [2] = experiment: Fungicidal activity against Thanatephorus cucumeris assessed as rice sheath blight disease control at 2 ppm foliar application for 24 hr before inoculation at 26 +- 2 measured after 5 days by preventive manner
Botrytis cinerea [3] = experiment: Fungicidal activity against Botryotinia fuckeliana assessed as cucumber gray mold disease control at 125 ppm foliar application 24 hr after inoculation at 22 +/- 2 degC measured after 3 days by curative manner
Thanatephorus cucumeris [4] = experiment: Fungicidal activity against Thanatephorus cucumeris assessed as rice sheath blight disease control at 7.8 ppm foliar application for 24 hr before inoculation at 26 +- 2 measured after 5 days by preventive manner
[5] = system: Pseudoperonospora cubensis; experiment: Fungicidal activity against Pseudoperonospora cubensis assessed as cucumber downy mildew disease control at 7.8 ppm foliar application 24 hr before inoculation on upper surface of leaf by preventive manner
Pyricularia oryzae [6] = experiment: Fungicidal activity against Magnaporthe oryzae assessed as rice blast disease control at 10 ppm submerged application measured after 7 days
[7] = system: Pseudoperonospora cubensis; experiment: Fungicidal activity against Pseudoperonospora cubensis assessed as cucumber downy mildew disease control at 125 ppm foliar application 24 hr before inoculation on upper surface of leaf by preventive manner
Botrytis cinerea [8] = experiment: Fungicidal activity against Botryotinia fuckeliana assessed as cucumber gray mold disease control at 31.3 ppm foliar application 24 hr after inoculation at 22 +/- 2 degC measured after 3 days by curative manner
Podosphaera fuliginea [9] = experiment: Fungicidal activity against Podosphaera fuliginea assessed as cucumber powdery mildew control under greenhouse at 125 ppm foliar application 24 hr before inoculation on upper surface of leaf at 23 +/- 2 degC by preventive manner
Botrytis cinerea [10] = experiment: Fungicidal activity against Botryotinia fuckeliana assessed as cucumber gray mold disease control at 7.8 ppm foliar application 24 hr after inoculation at 22 +/- 2 degC measured after 3 days by curative manner
Podosphaera fuliginea [11] = experiment: Fungicidal activity against Podosphaera fuliginea assessed as cucumber powdery mildew control under greenhouse at 31.3 ppm foliar application 24 hr before inoculation on upper surface of leaf at 23 +/- 2 degC by preventive manner
Podosphaera fuliginea [12] = experiment: Fungicidal activity against Podosphaera fuliginea assessed as cucumber powdery mildew control under greenhouse at 7.8 ppm foliar application 24 hr after inoculation on upper surface of leaf at 23 +/- 2 degC by curative manner
Pyricularia oryzae [13] = experiment: Fungicidal activity against Magnaporthe oryzae assessed as rice blast disease control at 2.5 ppm submerged application measured after 7 days
Podosphaera fuliginea [14] = experiment: Fungicidal activity against Podosphaera fuliginea assessed as cucumber powdery mildew control under greenhouse at 31.3 ppm foliar application 24 hr after inoculation on upper surface of leaf at 23 +/- 2 degC by curative manner
Podosphaera fuliginea [15] = experiment: Fungicidal activity against Podosphaera fuliginea assessed as cucumber powdery mildew control under greenhouse at 2 ppm foliar application 24 hr before inoculation on upper surface of leaf at 23 +/- 2 degC by preventive manner
Thanatephorus cucumeris [16] = experiment: Fungicidal activity against Thanatephorus cucumeris assessed as rice sheath blight disease control at 125 ppm foliar application for 24 hr before inoculation at 26 +- 2 measured after 5 days by preventive manner
Podosphaera fuliginea [17] = experiment: Fungicidal activity against Podosphaera fuliginea assessed as cucumber powdery mildew control under greenhouse at 125 ppm foliar application 24 hr after inoculation on upper surface of leaf at 23 +/- 2 degC by curative manner
Thanatephorus cucumeris [18] = experiment: Fungicidal activity against Thanatephorus cucumeris assessed as rice sheath blight disease control at 31.3 ppm foliar application for 24 hr before inoculation at 26 +- 2 measured after 5 days by preventive manner
[19] = system: Pseudoperonospora cubensis; experiment: Fungicidal activity against Pseudoperonospora cubensis assessed as cucumber downy mildew disease control at 2 ppm foliar application 24 hr before inoculation on upper surface of leaf by preventive manner
Podosphaera fuliginea [20] = experiment: Fungicidal activity against Podosphaera fuliginea assessed as cucumber powdery mildew control under greenhouse at 7.8 ppm foliar application 24 hr before inoculation on upper surface of leaf at 23 +/- 2 degC by preventive manner
Botrytis cinerea [21] = experiment: Fungicidal activity against Botryotinia fuckeliana assessed as cucumber gray mold disease control at 2 ppm foliar application 24 hr after inoculation at 22 +/- 2 degC measured after 3 days by curative manner
Pyricularia oryzae [22] = experiment: Fungicidal activity against Magnaporthe oryzae assessed as rice blast disease control at 0.16 ppm submerged application measured after 7 days
Podosphaera fuliginea [23] = experiment: Fungicidal activity against Podosphaera fuliginea assessed as cucumber powdery mildew control under greenhouse at 2 ppm foliar application 24 hr after inoculation on upper surface of leaf at 23 +/- 2 degC by curative manner
[24] = system: Pseudoperonospora cubensis; experiment: Fungicidal activity against Pseudoperonospora cubensis assessed as cucumber downy mildew disease control at 31.3 ppm foliar application 24 hr before inoculation on upper surface of leaf by preventive manner

Row | Compound | Activity (Pyricularia oryzae [1]) | Activity (Thanatephorus cucumeris [2]) | Activity (Thanatephorus cucumeris [4]) | Activity [5] | Activity (Pyricularia oryzae [6]) | Activity [7] | Activity (Podosphaera fuliginea [9]) | Activity (Podosphaera fuliginea [11]) | Activity (Podosphaera fuliginea [12]) | Activity (Pyricularia oryzae [13]) | Activity (Podosphaera fuliginea [14]) | Activity (Podosphaera fuliginea [15]) | Activity (Thanatephorus cucumeris [16]) | Activity (Podosphaera fuliginea [17]) | Activity (Thanatephorus cucumeris [18]) | Activity [19] | Activity (Podosphaera fuliginea [20]) | Activity (Pyricularia oryzae [22]) | Activity (Podosphaera fuliginea [23]) | Activity [24] | other results
1 | CNC(=O)/C(=N/OC)c1ccccc1Oc1ccccc1C | 50% | <70% | <70% | <70% | 50% | <70% | 70% | 70% | 50% | 50% | 50% | 70% | <70% | 50% | <70% | <70% | 70% | 50% | 50% | <70% | Activity (Botrytis cinerea [3]): 50%; Activity (Botrytis cinerea [8]): 50%; Activity (Botrytis cinerea [10]): 50%; Activity (Botrytis cinerea [21]): 50%
2 | CNC(=O)/C(=N/OC)c1ccccc1Oc1ccc(C(C)C)cc1C(C)C | 50% | 70% | 70% | <70% | 50% | <70% | 70% | 70% | 50% | 50% | 50% | 70% | 70% | 50% | 70% | <70% | 70% | 50% | 50% | <70% | –
3 | CNC(=O)/C(=N/OC)c1ccccc1Oc1cccc(OCc2ccccc2)c1 | <50% | 70% | 70% | 70% | <50% | 70% | 70% | 70% | 50% | <50% | 50% | 70% | 70% | 50% | 70% | 70% | 70% | <50% | 50% | 70% | Activity (Botrytis cinerea [3]): 50%; Activity (Botrytis cinerea [8]): 50%; Activity (Botrytis cinerea [10]): 50%; Activity (Botrytis cinerea [21]): 50%
4 | CNC(=O)/C(=N/OC)c1ccccc1Oc1ccc([Si](C)(C)C)cc1 | <50% | <70% | <70% | <70% | <50% | <70% | 70% | 70% | 50% | <50% | 50% | 70% | <70% | 50% | <70% | <70% | 70% | <50% | 50% | <70% | Activity (Botrytis cinerea [3]): <50%; Activity (Botrytis cinerea [8]): <50%; Activity (Botrytis cinerea [10]): <50%; Activity (Botrytis cinerea [21]): <50%
5 | CNC(=O)/C(=N/OC)c1ccccc1Oc1ccc(C(C)C)cc1 | 50% | 70% | 70% | 70% | 50% | 70% | 70% | 70% | 50% | 50% | 50% | 70% | 70% | 50% | 70% | 70% | 70% | 50% | 50% | 70% | Activity (Botrytis cinerea [3]): 50%; Activity (Botrytis cinerea [8]): 50%; Activity (Botrytis cinerea [10]): 50%; Activity (Botrytis cinerea [21]): 50%
6 | CNC(=O)/C(=N/OC)c1ccccc1Oc1cccc(OCC#N)c1 | <50% | <70% | <70% | <70% | <50% | <70% | 70% | 70% | 50% | <50% | 50% | 70% | <70% | 50% | <70% | <70% | 70% | <50% | 50% | <70% | –
7 | CNC(=O)/C(=N/OC)c1ccccc1Oc1ccc(Oc2ccccc2)cc1 | 50% | 70% | 70% | <70% | 50% | <70% | 70% | 70% | 50% | 50% | 50% | 70% | 70% | 50% | 70% | <70% | 70% | 50% | 50% | <70% | –
8 | CNC(=O)/C(=N/OC)c1cccc(Oc2ccccc2)c1 | – | 70% | 70% | <70% | – | <70% | 70% | 70% | – | – | – | 70% | 70% | – | 70% | <70% | 70% | – | – | <70% | –
9 | CCNC(=O)/C(=N/OC)c1ccccc1Oc1ccccc1 | – | 70% | 70% | <70% | – | <70% | 70% | 70% | – | – | – | 70% | 70% | – | 70% | <70% | 70% | – | – | <70% | –
10 | CNC(=O)/C(=N/OC)c1ccccc1Oc1ccc(C)cc1 | 50% | 70% | 70% | <70% | 50% | <70% | 70% | 70% | 50% | 50% | 50% | 70% | 70% | 50% | 70% | <70% | 70% | 50% | 50% | <70% | Activity (Botrytis cinerea [3]): 50%; Activity (Botrytis cinerea [8]): 50%; Activity (Botrytis cinerea [10]): 50%; Activity (Botrytis cinerea [21]): 50%
11 | CNC(=O)/C(=N/OC)c1ccccc1Oc1cccc(O)c1 | 50% | 70% | 70% | <70% | 50% | <70% | <70% | <70% | – | 50% | – | <70% | 70% | – | 70% | <70% | <70% | 50% | – | <70% | –
